Key:
Format in all cases: cell-based
Conditions in all cases: compound concentration 50 μM, 72 hours
K562 = assay: Inhibition of tumor cell proliferation, CellTiter-Glo, K562
Experimental: (§1) For various cell lines, the corresponding complete medium was used, and culture was carried out in an incubator at 37° C. with 5% CO2. The cells were counted, and inoculated into a 96-well plate at 2000-10000 cells/100 μl per well according to the cell volume and growth rate. The suspended cells were treated immediately, and the adherent cells were treated after adherence. The CellTiter-Glo method was used to detect the changes in cell viability 72 hours after the administration, and the cell survival rate at different concentrations was calculated by a formula: Survival rate (%)=(RLU of treatment well−RLU of blank well)/(RLU of control well−RLU of blank well)×100.
(§2) Method for expressing the inhibitory activity of the compounds against the proliferation of tumor cells: Evaluation was made based on the cell survival rate at a compound concentration of 50 μM. 60≤survival rate (%)<90 is considered to have low inhibitory activity against the proliferation of tumor cells (+); 30<survival rate (%)≤60 is considered to have moderate inhibitory activity against the proliferation of tumor cells (++); and survival rate (%)≤30 is considered to have high inhibitory activity against the proliferation of tumor cells (+++).

RPMI-8226 = assay: Inhibition of tumor cell proliferation, CellTiter-Glo, RPMI-8226
Experimental: as §1, §2

SU-DHL6 = assay: Inhibition of tumor cell proliferation, CellTiter-Glo, SU-DHL6
Experimental: as §1, §2

A549 = assay: Inhibition of tumor cell proliferation, CellTiter-Glo, A549
Experimental: as §1, §2

BxPC-3 = assay: Inhibition of tumor cell proliferation, CellTiter-Glo, BxPC-3
Experimental: as §1, §2

MDA-MB-453 = assay: Inhibition of tumor cell proliferation, CellTiter-Glo, MDA-MB-453
Experimental: as §1, §2

Compound | Inhibitory activity against proliferation (cell survival rate) K562 (K562) | Inhibitory activity against proliferation (cell survival rate) RPMI-8226 (RPMI-8226) | Inhibitory activity against proliferation (cell survival rate) SU-DHL6 (SU-DHL6) | Inhibitory activity against proliferation (cell survival rate) A549 (A549) | Inhibitory activity against proliferation (cell survival rate) BxPC-3 (BxPC-3) | Inhibitory activity against proliferation (cell survival rate) MDA-MB-453 (MDA-MB-453)
O=C1CCC(N2Cc3c(NC(=O)CCC(=O)OCCN4CCN(CCNC=C5C(=O)CC(c6ccccc6)CC5=O)CC4)cccc3C2=O)C(=O)N1 (stereo not drawn) [Compound 56] | + (60≤survival rate (%)<90) | + (60≤survival rate (%)<90) | +++ (survival rate (%)≤30) | +++ (survival rate (%)≤30) | + (60≤survival rate (%)<90) | +++ (survival rate (%)≤30)
O=C1CCC(N2C(=O)c3cccc(NC(=O)CCC(=O)OCCN4CCN(CCNC=C5C(=O)CC(c6ccccc6)CC5=O)CC4)c3C2=O)C(=O)N1 (stereo not drawn) [Compound 57] | + (60≤survival rate (%)<90) | + (60≤survival rate (%)<90) | +++ (survival rate (%)≤30) | + (60≤survival rate (%)<90) | + (60≤survival rate (%)<90) | + (60≤survival rate (%)<90)
O=C1CCC(N2Cc3c(NC(=O)C4CCN(CCNC=C5C(=O)CC(c6ccccc6)CC5=O)CC4)cccc3C2=O)C(=O)N1 (stereo not drawn) [Compound 61] | + (60≤survival rate (%)<90) | + (60≤survival rate (%)<90) | ++ (30<survival rate (%)≤60) | + (60≤survival rate (%)<90) | + (60≤survival rate (%)<90) | +++ (survival rate (%)≤30)
O=C1CCC(N2Cc3c(NC(=O)c4cnc(NC=C5C(=O)CC(c6ccccc6)CC5=O)s4)cccc3C2=O)C(=O)N1 (stereo not drawn) [Compound 62] | + (60≤survival rate (%)<90) | +++ (survival rate (%)≤30) | ++ (30<survival rate (%)≤60) | ++ (30<survival rate (%)≤60) | ++ (30<survival rate (%)≤60) | +++ (survival rate (%)≤30)
O=C1CCC(N2C(=O)c3cccc(NC(=O)c4cnc(NC=C5C(=O)CC(c6ccccc6)CC5=O)s4)c3C2=O)C(=O)N1 (stereo not drawn) [Compound 63] | +++ (survival rate (%)≤30) | ++ (30<survival rate (%)≤60) | ++ (30<survival rate (%)≤60) | + (60≤survival rate (%)<90) | + (60≤survival rate (%)<90) | + (60≤survival rate (%)<90)
O=C1CCC(N2Cc3c(NC(=O)[C@@H]4C[C@H](O)CN4CCNC=C4C(=O)CC(c5ccccc5)CC4=O)cccc3C2=O)C(=O)N1 (stereo partly drawn) [Compound 65] | +++ (survival rate (%)≤30) | +++ (survival rate (%)≤30) | +++ (survival rate (%)≤30) | +++ (survival rate (%)≤30) | + (60≤survival rate (%)<90) | +++ (survival rate (%)≤30)
O=C1CCC(N2Cc3c(NC(=O)c4ccc(NC=C5C(=O)CC(c6ccccc6)CC5=O)nc4)cccc3C2=O)C(=O)N1 (stereo not drawn) [Compound 66] | +++ (survival rate (%)≤30) | + (60≤survival rate (%)<90) | +++ (survival rate (%)≤30) | +++ (survival rate (%)≤30) | + (60≤survival rate (%)<90) | ++ (30<survival rate (%)≤60)
O=C1CCC(N2Cc3c(NC(=O)c4cccnc4NC=C4C(=O)CC(c5ccccc5)CC4=O)cccc3C2=O)C(=O)N1 (stereo not drawn) [Compound 67] | +++ (survival rate (%)≤30) | +++ (survival rate (%)≤30) | +++ (survival rate (%)≤30) | +++ (survival rate (%)≤30) | + (60≤survival rate (%)<90) | ++ (30<survival rate (%)≤60)
O=C1CCC(N2C(=O)c3cccc(NS(=O)(=O)N4CCN(CCNC=C5C(=O)CC(c6ccccc6)CC5=O)CC4)c3C2=O)C(=O)N1 (stereo not drawn) [Compound 71] | +++ (survival rate (%)≤30) | +++ (survival rate (%)≤30) | +++ (survival rate (%)≤30) | +++ (survival rate (%)≤30) | + (60≤survival rate (%)<90) | +++ (survival rate (%)≤30)
O=C1CCC(N2Cc3c(NS(=O)(=O)N4CCN(CCNC=C5C(=O)CC(c6ccccc6)CC5=O)CC4)cccc3C2=O)C(=O)N1 (stereo not drawn) [Compound 72] | +++ (survival rate (%)≤30) | + (60≤survival rate (%)<90) | +++ (survival rate (%)≤30) | + (60≤survival rate (%)<90) | + (60≤survival rate (%)<90) | + (60≤survival rate (%)<90)
CC(Nc1cccc2c1CN(C1CCC(=O)NC1=O)C2=O)=C1C(=O)CC(c2ccccc2)CC1=O (stereo not drawn) [Compound 73] | +++ (survival rate (%)≤30) | + (60≤survival rate (%)<90) | +++ (survival rate (%)≤30) | +++ (survival rate (%)≤30) | + (60≤survival rate (%)<90) | +++ (survival rate (%)≤30)
O=C1CCC(N2Cc3c(NC(CO)=C4C(=O)CC(c5ccccc5)CC4=O)cccc3C2=O)C(=O)N1 (stereo not drawn) [Compound 74] | + (60≤survival rate (%)<90) | + (60≤survival rate (%)<90) | + (60≤survival rate (%)<90) | + (60≤survival rate (%)<90) | + (60≤survival rate (%)<90) | + (60≤survival rate (%)<90)
O=C1CCC(N2Cc3c(NC(=O)NCCNC=C4C(=O)CC(c5ccccc5)CC4=O)cccc3C2=O)C(=O)N1 (stereo not drawn) [Compound 77] | +++ (survival rate (%)≤30) | + (60≤survival rate (%)<90) | + (60≤survival rate (%)<90) | +++ (survival rate (%)≤30) | + (60≤survival rate (%)<90) | +++ (survival rate (%)≤30)
O=C1CCC(N2Cc3c(NC(=O)OCCNC=C4C(=O)CC(c5ccccc5)CC4=O)cccc3C2=O)C(=O)N1 (stereo not drawn) [Compound 78] | +++ (survival rate (%)≤30) | + (60≤survival rate (%)<90) | + (60≤survival rate (%)<90) | +++ (survival rate (%)≤30) | + (60≤survival rate (%)<90) | +++ (survival rate (%)≤30)

Reference: patent US11021457B2, “Class of isoindolone-imide ring-1,3-dione-2-ene compounds, composition and use thereof” (WIGEN BIOMEDICINE TECHNOLOGY (SHANGHAI) CO., LTD., priority 2017, dated 2021)
